Tests used:
human RXFP3 [1] = biological target: T1, human RXFP3 (Homo sapiens, UniProt Q9NSD7); test: Receptor binding assay, NanoLuc-conjugated R3/I5 tracer competition; conditions: for binding potency towards RXFP3, in words: compared with R3/I5
T1 construct: expressed in transfected cells; host or cells: HEK293T
T1 sequence (Q9NSD7 1-469): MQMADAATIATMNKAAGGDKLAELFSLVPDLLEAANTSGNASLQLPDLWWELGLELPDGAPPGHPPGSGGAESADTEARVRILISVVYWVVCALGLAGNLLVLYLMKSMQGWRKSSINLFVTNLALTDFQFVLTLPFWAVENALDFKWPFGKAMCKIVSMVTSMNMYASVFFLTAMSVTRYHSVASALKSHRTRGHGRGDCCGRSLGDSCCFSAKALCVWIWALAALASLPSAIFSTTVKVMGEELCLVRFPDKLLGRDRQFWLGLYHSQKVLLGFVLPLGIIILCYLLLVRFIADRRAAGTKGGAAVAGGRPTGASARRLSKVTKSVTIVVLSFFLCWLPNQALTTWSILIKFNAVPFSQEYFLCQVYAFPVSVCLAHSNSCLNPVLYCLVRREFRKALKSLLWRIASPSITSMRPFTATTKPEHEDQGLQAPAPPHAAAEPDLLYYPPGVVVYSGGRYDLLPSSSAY
Experimental: (§1) Specific binding data are expressed as means ± SE (n = 3) and fitted to sigmoidal curves using SigmaPlot 10.0 software.
(§2) Briefly, HEK293T cells were transiently transfected with an expression construct of human RXFP3 or human RXFP4. On the next day, transfected cells were trypsinised, seeded into 96-well plates, and continuously cultured for 24–36 h to ~100% confluence. […] After incubation at 21 °C for 2 h, binding solution was removed and cells were washed twice with ice-cold phosphate-buffered saline (200 μl/well for each wash). Thereafter, cells were lysed by lysis solution (100 μl/well, Promega, Madison, WI, USA) and cell lysates were transferred to a white opaque 96-well plate (50 μl/well). After mixing with freshly diluted substrate (50 μl/well), bioluminescence was immediately measured on a SpectraMax M5 plate reader (Molecular Devices, Sunnyvale, CA, USA) in luminescence mode. […] The calculated specific binding data were expressed as means ± standard error (SE; n = 3) and fitted to sigmoidal curves using SigmaPlot 10.0 software.

human RXFP4 [2] = biological target: T2, human RXFP4 (Homo sapiens, UniProt Q8TDU9); test: as above; conditions: compared with R3/I5
T2 construct: expressed in transfected cells; host or cells: HEK293T
Experimental: as §1, §2

human RXFP3 [3] = biological target: T1, human RXFP3; test: Receptor activation assay, CRE-controlled NanoLuc reporter; assay type: cell-based; conditions: for fold lower activation potency towards RXFP3 compared with R3/I5: relative to R3/I5; for fold higher activation potency towards RXFP3 than towards RXFP4: selectivity RXFP3 over RXFP4, from activation assays
Source text: (§3) HEK293T cells transiently cotransfected with a CRE-controlled NanoLuc reporter vector and the expression construct of human RXFP3 or human RXFP4 were used for activation assays. The measured bioluminescence data are expressed as means ± SE (n = 3) and fitted to sigmoidal or linear curves using SigmaPlot 10.0.
(§4) Briefly, HEK293T cells were transiently cotransfected with the NanoLuc reporter vector pNL1.2/CRE and the expression construct of human RXFP3 or human RXFP4. On the next day, transfected cells were trypsinised, seeded into 96-well plates, and continuously cultured for 24–36 h to ~90% confluence. To initiate activation assays, medium was removed and activation solution (serum-free DMEM medium plus 1% bovine serum albumin) containing 1.0 μM of forskolin and various concentrations of peptide was added (100 μl/well). After continuous culturing at 37 °C for 4 h, activation solution was removed and cells were lysed with lysis solution (100 μl/well, Promega). Cell lysates were then transferred to a white opaque 96-well plate (50 μl/well), mixed with freshly diluted substrate (50 μl/well), and bioluminescence was immediately measured on a SpectraMax M5 plate reader (Molecular Devices) in luminescence mode. The measured data were expressed as means ± SE (n = 3) and fitted to sigmoidal or linear curves using SigmaPlot 10.0 software.

human RXFP4 [4] = biological target: T2, human RXFP4; test: as above; assay type: cell-based; conditions: relative to R3/I5
Source text: as §3, §4

[5] = CRE-NanoLuc reporter, human RXFP3

T2 sequence (Q8TDU9 whole entry): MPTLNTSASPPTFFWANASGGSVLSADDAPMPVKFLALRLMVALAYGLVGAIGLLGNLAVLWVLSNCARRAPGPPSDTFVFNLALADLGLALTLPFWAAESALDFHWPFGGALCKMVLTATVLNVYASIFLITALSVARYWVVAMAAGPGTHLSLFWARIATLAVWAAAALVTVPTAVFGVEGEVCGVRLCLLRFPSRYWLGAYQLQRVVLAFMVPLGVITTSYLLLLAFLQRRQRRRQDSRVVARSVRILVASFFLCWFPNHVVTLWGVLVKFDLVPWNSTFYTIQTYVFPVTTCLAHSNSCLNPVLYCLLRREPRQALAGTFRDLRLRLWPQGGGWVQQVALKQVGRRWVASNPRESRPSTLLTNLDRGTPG

Structure (SMILES) | binding potency towards RXFP3, in words (human RXFP3 [1]) | binding potency towards RXFP4, in words (human RXFP4 [2]) | fold lower activation potency towards RXFP3 compared with R3/I5 (human RXFP3 [3]; [5]) | fold lower activation potency towards RXFP4 compared with R3/I5 (human RXFP4 [4]) | activation potency towards RXFP3, in words (human RXFP3 [3]; CRE-NanoLuc reporter, human RXFP3, compared with R3/I5) | fold higher activation potency towards RXFP3 than towards RXFP4 (human RXFP3 [3]) | fold lower binding potency for RXFP3 compared with R3/I5 (human RXFP3 [1]; relative to R3/I5)
CC[C@H](C)[C@@H]1NC(=O)[C@H](Cc2ccccc2)NC(=O)[C@H](CCC(=O)O)NC(=O)[C@H](CCCNC(=N)N)NC(=O)CNC(=O)[C@@H](NC(=O)[C@H](CC(C)C)NC(=O)[C@H](CCCNC(=N)N)NC(=O)[C@@H](NC(=O)CNC(=O)[C@H](Cc2ccc(O)cc2)NC(=O)[C@@H]2CCCN2C(=O)[C@H](C)NC(=O)[C@H](C)NC(=O)[C@H](CCCNC(=N)N)NC(=O)[C@@H]2CCC(=O)N2)C(C)C)CSSC[C@@H]2NC(=O)[C@@H](NC(=O)[C@H](CC(C)C)NC(=O)[C@@H](NC(=O)[C@H](CCC(N)=O)NC(=O)[C@H](CC(C)C)NC(=O)[C@H](CC(=O)O)NC(=O)[C@H](CCC(N)=O)NC(=O)[C@H](CCCNC(=N)N)NC(=O)[C@H](CO)NC(=O)[C@H](CCCNC(=N)N)NC(=O)[C@H](CCCNC(=N)N)NC(=O)[C@H](CO)NC(=O)[C@@H](N)CCCNC(=N)N)[C@@H](C)O)CSSC[C@H](NC(=O)CNC(=O)[C@H](CC(=O)O)NC(=O)[C@H]([C@@H](C)O)NC2=O)C(=O)N[C@@H](CO)C(=O)N[C@@H](CCSC)C(=O)N[C@@H]([C@@H](C)O)C(=O)N[C@@H](CC(=O)O)C(=O)N[C@@H](CC(C)C)C(=O)N[C@@H](CO)C(=O)N[C@@H](C)C(=O)N[C@@H](CC(C)C)C(=O)N[C@H](C(=O)O)CSSC[C@@H](C(=O)NCC(=O)NCC(=O)NCC(=O)N[C@@H](CO)C(=O)N[C@@H](CCCNC(=N)N)C(=O)N[C@@H](Cc2c[nH]c3ccccc23)C(=O)O)NC(=O)[C@H]([C@@H](C)O)NC(=O)[C@H](Cc2ccccc2)NC(=O)[C@H]([C@@H](C)CC)NC(=O)[C@H](C(C)C)NC(=O)[C@H](C)NC(=O)[C@H](CCCNC(=N)N)NC1=O [[+G(B23-24)]R3/I5] | comparable with R3/I5 | comparable with R3/I5 | ~ 100 fold | ~ 100 fold |  |  | 
CC[C@H](C)[C@@H]1NC(=O)[C@H](Cc2ccccc2)NC(=O)[C@H](CCC(=O)O)NC(=O)[C@H](CCCNC(=N)N)NC(=O)CNC(=O)[C@@H](NC(=O)[C@H](CC(C)C)NC(=O)[C@H](CCCNC(=N)N)NC(=O)[C@@H](NC(=O)CNC(=O)[C@H](Cc2ccc(O)cc2)NC(=O)[C@@H]2CCCN2C(=O)[C@H](C)NC(=O)[C@H](C)NC(=O)[C@H](CCCNC(=N)N)NC(=O)[C@@H]2CCC(=O)N2)C(C)C)CSSC[C@@H]2NC(=O)[C@@H](NC(=O)[C@H](CC(C)C)NC(=O)[C@@H](NC(=O)[C@H](CCC(N)=O)NC(=O)[C@H](CC(C)C)NC(=O)[C@H](CC(=O)O)NC(=O)[C@H](CCC(N)=O)NC(=O)[C@H](CCCNC(=N)N)NC(=O)[C@H](CO)NC(=O)[C@H](CCCNC(=N)N)NC(=O)[C@H](CCCNC(=N)N)NC(=O)[C@H](CO)NC(=O)[C@@H](N)CCCNC(=N)N)[C@@H](C)O)CSSC[C@H](NC(=O)CNC(=O)[C@H](CC(=O)O)NC(=O)[C@H]([C@@H](C)O)NC2=O)C(=O)N[C@@H](CO)C(=O)N[C@@H](CCSC)C(=O)N[C@@H]([C@@H](C)O)C(=O)N[C@@H](CC(=O)O)C(=O)N[C@@H](CC(C)C)C(=O)N[C@@H](CO)C(=O)N[C@@H](C)C(=O)N[C@@H](CC(C)C)C(=O)N[C@H](C(=O)O)CSSC[C@@H](C(=O)N[C@@H](C)C(=O)NCC(=O)N[C@@H](CO)C(=O)N[C@@H](CCCNC(=N)N)C(=O)N[C@@H](Cc2c[nH]c3ccccc23)C(=O)O)NC(=O)[C@H]([C@@H](C)O)NC(=O)[C@H](Cc2ccccc2)NC(=O)[C@H]([C@@H](C)CC)NC(=O)[C@H](C(C)C)NC(=O)[C@H](C)NC(=O)[C@H](CCCNC(=N)N)NC1=O [[G(B23)A]R3/I5] | retained considerable binding potency | retained high binding potency |  | ~ 100 fold | lost all activation potency |  | 
CC[C@H](C)[C@@H]1NC(=O)[C@H](Cc2ccccc2)NC(=O)[C@H](CCC(=O)O)NC(=O)[C@H](CCCNC(=N)N)NC(=O)CNC(=O)[C@@H](NC(=O)[C@H](CC(C)C)NC(=O)[C@H](CCCNC(=N)N)NC(=O)[C@@H](NC(=O)CNC(=O)[C@H](Cc2ccc(O)cc2)NC(=O)[C@@H]2CCCN2C(=O)[C@H](C)NC(=O)[C@H](C)NC(=O)[C@H](CCCNC(=N)N)NC(=O)[C@@H]2CCC(=O)N2)C(C)C)CSSC[C@@H]2NC(=O)[C@@H](NC(=O)[C@H](CC(C)C)NC(=O)[C@@H](NC(=O)[C@H](CCC(N)=O)NC(=O)[C@H](CC(C)C)NC(=O)[C@H](CC(=O)O)NC(=O)[C@H](CCC(N)=O)NC(=O)[C@H](CCCNC(=N)N)NC(=O)[C@H](CO)NC(=O)[C@H](CCCNC(=N)N)NC(=O)[C@H](CCCNC(=N)N)NC(=O)[C@H](CO)NC(=O)[C@@H](N)CCCNC(=N)N)[C@@H](C)O)CSSC[C@H](NC(=O)CNC(=O)[C@H](CC(=O)O)NC(=O)[C@H]([C@@H](C)O)NC2=O)C(=O)N[C@@H](CO)C(=O)N[C@@H](CCSC)C(=O)N[C@@H]([C@@H](C)O)C(=O)N[C@@H](CC(=O)O)C(=O)N[C@@H](CC(C)C)C(=O)N[C@@H](CO)C(=O)N[C@@H](C)C(=O)N[C@@H](CC(C)C)C(=O)N[C@H](C(=O)O)CSSC[C@@H](C(=O)NCC(=O)N[C@H](C(=O)N[C@@H](CO)C(=O)N[C@@H](CCCNC(=N)N)C(=O)N[C@@H](Cc2c[nH]c3ccccc23)C(=O)O)[C@@H](C)O)NC(=O)[C@H]([C@@H](C)O)NC(=O)[C@H](Cc2ccccc2)NC(=O)[C@H]([C@@H](C)CC)NC(=O)[C@H](C(C)C)NC(=O)[C@H](C)NC(=O)[C@H](CCCNC(=N)N)NC1=O [[G(B24)T]R3/I5] |  |  | ~ 20 fold |  |  | ~ 2 fold | 
CC[C@H](C)[C@@H]1NC(=O)[C@H](Cc2ccccc2)NC(=O)[C@H](CCC(=O)O)NC(=O)[C@H](CCCNC(=N)N)NC(=O)CNC(=O)[C@@H](NC(=O)[C@H](CC(C)C)NC(=O)[C@H](CCCNC(=N)N)NC(=O)[C@@H](NC(=O)CNC(=O)[C@H](Cc2ccc(O)cc2)NC(=O)[C@@H]2CCCN2C(=O)[C@H](C)NC(=O)[C@H](C)NC(=O)[C@H](CCCNC(=N)N)NC(=O)[C@@H]2CCC(=O)N2)C(C)C)CSSC[C@@H]2NC(=O)[C@@H](NC(=O)[C@H](CC(C)C)NC(=O)[C@@H](NC(=O)[C@H](CCC(N)=O)NC(=O)[C@H](CC(C)C)NC(=O)[C@H](CC(=O)O)NC(=O)[C@H](CCC(N)=O)NC(=O)[C@H](CCCNC(=N)N)NC(=O)[C@H](CO)NC(=O)[C@H](CCCNC(=N)N)NC(=O)[C@H](CCCNC(=N)N)NC(=O)[C@H](CO)NC(=O)[C@@H](N)CCCNC(=N)N)[C@@H](C)O)CSSC[C@H](NC(=O)CNC(=O)[C@H](CC(=O)O)NC(=O)[C@H]([C@@H](C)O)NC2=O)C(=O)N[C@@H](CO)C(=O)N[C@@H](CCSC)C(=O)N[C@@H]([C@@H](C)O)C(=O)N[C@@H](CC(=O)O)C(=O)N[C@@H](CC(C)C)C(=O)N[C@@H](CO)C(=O)N[C@@H](C)C(=O)N[C@@H](CC(C)C)C(=O)N[C@H](C(=O)O)CSSC[C@@H](C(=O)NCC(=O)N[C@H](C(=O)N[C@@H](CO)C(=O)N[C@@H](CCCNC(=N)N)C(=O)N[C@@H](Cc2c[nH]c3ccccc23)C(=O)O)C(C)C)NC(=O)[C@H]([C@@H](C)O)NC(=O)[C@H](Cc2ccccc2)NC(=O)[C@H]([C@@H](C)CC)NC(=O)[C@H](C(C)C)NC(=O)[C@H](C)NC(=O)[C@H](CCCNC(=N)N)NC1=O [[G(B24)V]R3/I5] |  |  | ~ 10 fold |  |  | ~ 10 fold | ~ 5 fold
